Data on 1 compound can be found in patent publication US20170216240A1, “METHODS FOR MODULATING IKS CHANNEL ACTIVITY” (UNIVERSITY OF MIAMI, priority 2014, published 2017).

For this assay, the target named is T1, Kv7.1/KCNE1 (Homo sapiens, UniProt P51787).
T1 construct: expressed in transfected cells; host or cells: Xenopus laevis oocytes (cRNA co-injection)
Put plainly: G(V) shift of Kv7.1 co-expressed with KCNE1 in Xenopus oocytes, two-electrode voltage-clamp. The settings on record: 70 μM, pH 7.4; for ΔV1/2 ± SEM (G(V) shift): Kv7.1/E1. It counts as cell-based. The source says:
cDNAs encoding human Kv7.1 (GEnBAnk Acc. No. NM_000218) and KCNE1 (NM_000219) were subcloned into the expression vectors pGEM or pXOOM, containing the 5′- and 3′-untranslated regions for Xenopus laevis β-globin as well as a poly-A segment (Jespersen et al., Biotechniques 32, 536-538, 540 (2002)). The truncated KCNE1 construct KCNE1ΔC was constructed by introducing a Stop codon at position 67 using Quikchange site-directed mutagenesis kit (Qiagen). The construct was fully sequenced to ensure proper mutation and absence of unwanted mutations (sequencing by Genewiz). The concatemers E1-Kv7.1-Kv7.1 and E1-Kv7.1 were provided by Dr. R. S. Kass at Columbia University, and can be prepared as described in Chan et al. Journal of General Physiology 132(2), 135-144, (2012)). The E1-Kv7.1 construct was made by linking the C-terminus of KCNE1 to the N-terminus of KCNQ1. The E1-Kv7.1-Kv7.1 construct was made by digesting the E1-Kv7.1 and a Kv7.1-Kv7.1 dimer with Xho1 and inserting the 2-kb fragment from the Kv7.1-Kv7.1 dimer digest into the cut KCNE1-Kv7.1 construct. The DNA encoding E1-Kv7.1-Kv7.1 and E1-Kv7.1 were in the pGEM vector and contained mutations to make the constructs suitable for voltage-clamp fluorometry recordings (Wang et al., J Biol Chem 273, 34069-34074 (1998)). The original KCNE1 and Kv7.1 sequences were therefore removed, one at a time, from the pGEM vector using different restriction enzymes (New England Biolabs). Sequences were separated using gel electrophoresis and harvested using Qiagen gel extraction kit. Corresponding wild type sequences were ligated into the construct using T4 Ligase (New England Biolabs). To ensure correct sequence the constructs were sequenced (Genewiz) and tested with different restriction enzymes in combination with gel electrophoresis to measure length and conformation of the gene. cRNA for injection of all constructs was prepared from linearized DNA using the T7 mMessage mMachine transcription kit (Ambion) according to the manufactures instructions. RNA quality was checked by gel electrophoresis, and RNA concentrations were quantified by UV spectroscopy.
Xenopus laevis oocytes were isolated and maintained (Bentzen, B. H. et al. Neuropharmacology 51, 1068-1077 (2006)). Approximately 50 nl cRNA (50 ng Kv7.1, KCNE1-Kv7.1-Kv7.1 or KCNE1-Kv7.1 alternatively 25 ng Kv7.1 together with 8 ng KCNE1 or KCNE1ΔC) was injected into each oocyte using a Nanojet microinjector (Drummond). Electrophysiological experiments were made 2-5 days after injection. Currents were measured at room temperature with the two-electrode voltage-clamp technique (CA-1B Dagan amplifier). Currents were sampled at 1-3.3 kHz, filtered at 500 Hz, and not leakage corrected. […] A control solution containing (in mM): 88 NaCl, 1 KCl, 15 HEPES, 0.4 CaCl2, and 0.8 MgCl2 was used. NaOH was added to adjust pH to 7.4, yielding a final sodium concentration of about 100 mM. The holding voltage was generally set to −80 mV. Activation curves were generally elicited by stepping to test voltages between −110 and +60 mV (2-4 s durations and 10 mV increments) followed by a tail voltage of −30 mV. For recordings of Kv7.1 at pH 9 and pH 10, the holding voltage was set to more negative voltages because the largest DHA-induced shifts induced channel opening already at −80 mV. […] Therefore, in arachidonyl amine experiments a brief hyperpolarizing pulse of 50 ms to −120 mV was introduced between the test voltage and the tail voltage to relief the channels from inactivation.
Test compounds were dissolved in 99.5% ethanol to a concentration of 100 mM and stored at −20° C. (Börjesson et al., Biophys J 95, 2242-2253 (2008); Börjesson et al., Biophys J 98, 396-403 (2010)). Shortly before experiments, test compounds were diluted in control solution to the desired test concentration. Pure control solution was added to the bath using a gravity-driven perfusion system. […]
On the technique in general: Two-electrode voltage clamp is typically applied to oocytes expressing channels or transporters.

Consider `CCCCC/C=C\C/C=C\C/C=C\C/C=C\CCCC(=O)NCCS(=O)(=O)O` [N-AT, N-arachidonoyl taurine], for which the “ΔV1/2 ± SEM (G(V) shift)” value is “about −30 mV”. The “ΔV1/2 ± SEM (G(V) shift)” value (listed as N-arachidonoyl taurine) is “about −30 mV”. For the same compound, for the setting “listed as N—AT”, the “ΔV1/2 ± SEM (G(V) shift)” value was −27.0 ± 2.5 mV. Also, the “G(V) shift of a representative cell (control curve shifted)” value (Kv7.1/KCNE1) is given as −24 mV.
